Results as given in PubChem BioAssay (NCI).
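Method: 48-hour compound exposure of cells in 96-well plates, five concentrations, linear interpolation of endpoints. GI50: concentration for 50% inhibition of growth. TGI is the concentration that stops growth completely.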

Experiments:
Experiment in all cases: NCI anticancer screen, dose series, 48 h
786-0 renal = tested on: 786-0 renal
A498 renal = tested on: A498 renal
A549 NSCLC = tested on: A549 NSCLC
ACHN renal = tested on: ACHN renal
BT-549 breast = tested on: BT-549 breast
CAKI-1 renal = tested on: CAKI-1 renal
CCRF-CEM leukemia = tested on: CCRF-CEM leukemia
COLO 205 colon = tested on: COLO 205 colon
DU-145 prostate = tested on: DU-145 prostate
EKVX NSCLC = tested on: EKVX NSCLC
HCT-116 colon = tested on: HCT-116 colon
HCT-15 colon = tested on: HCT-15 colon
HL-60(TB) leukemia = tested on: HL-60(TB) leukemia
HOP-62 NSCLC = tested on: HOP-62 NSCLC
HS 578T breast = tested on: HS 578T breast
HT29 colon = tested on: HT29 colon
K-562 leukemia = tested on: K-562 leukemia
KM12 colon = tested on: KM12 colon
LOX IMVI melanoma = tested on: LOX IMVI melanoma
M14 melanoma = tested on: M14 melanoma
MCF7 breast = tested on: MCF7 breast
MDA-MB-231 breast = tested on: MDA-MB-231 breast
MDA-MB-435 = tested on: MDA-MB-435
MDA-N = tested on: MDA-N
MOLT-4 leukemia = tested on: MOLT-4 leukemia
NCI-H226 lung = tested on: NCI-H226 lung
NCI-H23 lung = tested on: NCI-H23 lung
NCI-H460 lung = tested on: NCI-H460 lung
NCI-H522 lung = tested on: NCI-H522 lung
NCI/ADR-RES ovarian = tested on: NCI/ADR-RES ovarian
OVCAR-3 ovarian = tested on: OVCAR-3 ovarian
OVCAR-4 ovarian = tested on: OVCAR-4 ovarian
OVCAR-5 ovarian = tested on: OVCAR-5 ovarian
OVCAR-8 ovarian = tested on: OVCAR-8 ovarian
PC-3 prostate = tested on: PC-3 prostate
SF-268 CNS = tested on: SF-268 CNS
SF-295 CNS = tested on: SF-295 CNS
SF-539 CNS = tested on: SF-539 CNS
SK-MEL-2 melanoma = tested on: SK-MEL-2 melanoma
SK-MEL-28 melanoma = tested on: SK-MEL-28 melanoma
SK-MEL-5 melanoma = tested on: SK-MEL-5 melanoma
SN12C renal = tested on: SN12C renal
SNB-19 CNS = tested on: SNB-19 CNS
SNB-75 CNS = tested on: SNB-75 CNS
SR leukemia = tested on: SR leukemia
SW-620 colon = tested on: SW-620 colon
T-47D breast = tested on: T-47D breast
TK-10 renal = tested on: TK-10 renal
UACC-257 melanoma = tested on: UACC-257 melanoma
UO-31 renal = tested on: UO-31 renal
HOP-92 NSCLC = tested on: HOP-92 NSCLC
IGROV1 ovarian = tested on: IGROV1 ovarian
RPMI-8226 leukemia = tested on: RPMI-8226 leukemia
SK-OV-3 ovarian = tested on: SK-OV-3 ovarian
U251 CNS = tested on: U251 CNS
UACC-62 melanoma = tested on: UACC-62 melanoma
HCC-2998 colon = tested on: HCC-2998 colon
MALME-3M melanoma = tested on: MALME-3M melanoma
RXF 393 renal = tested on: RXF 393 renal

CCC(Cc1cnc2nc(N)nc(N)c2n1)c1ccc(C(=O)NC(CCC(=O)O)C(=O)O)cc1 (stereo unspecified)
TGI (786-0 renal): > 100 µM | TGI (A498 renal): > 100 µM | TGI (A549 NSCLC): > 100 µM | TGI (ACHN renal): > 100 µM | TGI (BT-549 breast): > 100 µM | TGI (CAKI-1 renal): > 100 µM | TGI (CCRF-CEM leukemia): > 100 µM | TGI (COLO 205 colon): > 100 µM | TGI (DU-145 prostate): > 100 µM | GI50 (EKVX NSCLC): 0.0196 µM | TGI (EKVX NSCLC): > 100 µM | TGI (HCT-116 colon): > 100 µM | TGI (HCT-15 colon): > 100 µM | TGI (HL-60(TB) leukemia): > 100 µM | TGI (HOP-62 NSCLC): > 100 µM | TGI (HS 578T breast): > 100 µM | TGI (HT29 colon): > 100 µM | TGI (K-562 leukemia): > 100 µM | TGI (KM12 colon): > 100 µM | TGI (LOX IMVI melanoma): > 100 µM | GI50 (M14 melanoma): 34.5 µM | TGI (M14 melanoma): > 100 µM | TGI (MCF7 breast): > 100 µM | GI50 (MDA-MB-231 breast): > 100 µM | TGI (MDA-MB-231 breast): > 100 µM | TGI (MDA-MB-435): > 100 µM | TGI (MDA-N): > 100 µM | TGI (MOLT-4 leukemia): > 100 µM | GI50 (NCI-H226 lung): > 100 µM | TGI (NCI-H226 lung): > 100 µM | TGI (NCI-H23 lung): > 100 µM | TGI (NCI-H460 lung): > 100 µM | TGI (NCI-H522 lung): > 100 µM | TGI (NCI/ADR-RES ovarian): > 100 µM | GI50 (OVCAR-3 ovarian): > 100 µM | TGI (OVCAR-3 ovarian): > 100 µM | GI50 (OVCAR-4 ovarian): > 100 µM | TGI (OVCAR-4 ovarian): > 100 µM | TGI (OVCAR-5 ovarian): > 100 µM | TGI (OVCAR-8 ovarian): > 100 µM | TGI (PC-3 prostate): > 100 µM | TGI (SF-268 CNS): > 100 µM | TGI (SF-295 CNS): > 100 µM | TGI (SF-539 CNS): 1.28 µM | GI50 (SK-MEL-2 melanoma): > 100 µM | TGI (SK-MEL-2 melanoma): > 100 µM | GI50 (SK-MEL-28 melanoma): > 100 µM | TGI (SK-MEL-28 melanoma): > 100 µM | TGI (SK-MEL-5 melanoma): > 100 µM | TGI (SN12C renal): > 100 µM | GI50 (SNB-19 CNS): 0.0134 µM | TGI (SNB-19 CNS): > 100 µM | TGI (SNB-75 CNS): > 100 µM | TGI (SR leukemia): > 100 µM | TGI (SW-620 colon): > 100 µM | TGI (T-47D breast): > 100 µM | TGI (TK-10 renal): > 100 µM | TGI (UACC-257 melanoma): > 100 µM | TGI (UO-31 renal): > 100 µM

O=C(O)CN1CCNCCNCC1
TGI (786-0 renal): > 100 µM | TGI (A498 renal): > 100 µM | TGI (A549 NSCLC): > 100 µM | TGI (ACHN renal): > 100 µM | TGI (BT-549 breast): > 100 µM | TGI (CAKI-1 renal): > 100 µM | TGI (CCRF-CEM leukemia): > 100 µM | TGI (COLO 205 colon): > 100 µM | TGI (DU-145 prostate): > 100 µM | TGI (EKVX NSCLC): > 100 µM | TGI (HCT-116 colon): > 100 µM | TGI (HCT-15 colon): > 100 µM | TGI (HL-60(TB) leukemia): 68.5 µM | TGI (HOP-62 NSCLC): > 100 µM | TGI (HOP-92 NSCLC): > 100 µM | TGI (HS 578T breast): > 100 µM | TGI (HT29 colon): > 100 µM | TGI (IGROV1 ovarian): > 100 µM | TGI (K-562 leukemia): > 100 µM | TGI (KM12 colon): > 100 µM | TGI (LOX IMVI melanoma): > 100 µM | TGI (M14 melanoma): > 100 µM | TGI (MCF7 breast): > 100 µM | TGI (MDA-MB-231 breast): > 100 µM | TGI (MDA-MB-435): > 100 µM | TGI (MDA-N): > 100 µM | TGI (MOLT-4 leukemia): > 100 µM | TGI (NCI-H226 lung): > 100 µM | TGI (NCI-H460 lung): > 100 µM | TGI (NCI/ADR-RES ovarian): > 100 µM | TGI (OVCAR-3 ovarian): > 100 µM | TGI (OVCAR-4 ovarian): > 100 µM | TGI (OVCAR-5 ovarian): > 100 µM | TGI (OVCAR-8 ovarian): > 100 µM | TGI (PC-3 prostate): > 100 µM | TGI (RPMI-8226 leukemia): > 100 µM | TGI (SF-539 CNS): > 100 µM | TGI (SK-MEL-2 melanoma): > 100 µM | TGI (SK-MEL-28 melanoma): > 100 µM | TGI (SK-MEL-5 melanoma): > 100 µM | TGI (SK-OV-3 ovarian): > 100 µM | TGI (SN12C renal): > 100 µM | TGI (SNB-19 CNS): > 100 µM | TGI (SNB-75 CNS): > 100 µM | TGI (SR leukemia): > 100 µM | TGI (SW-620 colon): > 100 µM | TGI (T-47D breast): > 100 µM | TGI (TK-10 renal): > 100 µM | TGI (U251 CNS): > 100 µM | TGI (UACC-257 melanoma): > 100 µM | TGI (UACC-62 melanoma): > 100 µM | TGI (UO-31 renal): > 100 µM

N#CCCN(CCCN(C(=O)N(c1ccccc1)c1ccccc1)c1ccccc1)C(=O)Nc1ccccc1
TGI (786-0 renal): > 100 µM | TGI (A498 renal): > 100 µM | TGI (A549 NSCLC): > 100 µM | TGI (ACHN renal): > 100 µM | TGI (BT-549 breast): > 100 µM | TGI (CAKI-1 renal): > 100 µM | TGI (CCRF-CEM leukemia): 83.6 µM | TGI (DU-145 prostate): > 100 µM | TGI (EKVX NSCLC): > 100 µM | TGI (HCC-2998 colon): > 100 µM | TGI (HCT-116 colon): > 100 µM | TGI (HCT-15 colon): > 100 µM | TGI (HL-60(TB) leukemia): 45.1 µM | TGI (HOP-62 NSCLC): > 100 µM | TGI (HOP-92 NSCLC): > 100 µM | TGI (HS 578T breast): > 100 µM | TGI (HT29 colon): > 100 µM | TGI (K-562 leukemia): > 100 µM | TGI (KM12 colon): > 100 µM | TGI (LOX IMVI melanoma): > 100 µM | TGI (M14 melanoma): > 100 µM | TGI (MALME-3M melanoma): > 100 µM | TGI (MCF7 breast): > 100 µM | TGI (MDA-MB-231 breast): > 100 µM | TGI (MDA-MB-435): > 100 µM | TGI (MDA-N): > 100 µM | TGI (MOLT-4 leukemia): > 100 µM | TGI (NCI-H226 lung): > 100 µM | TGI (NCI-H23 lung): > 100 µM | TGI (NCI-H460 lung): > 100 µM | TGI (NCI-H522 lung): > 100 µM | TGI (NCI/ADR-RES ovarian): > 100 µM | TGI (OVCAR-3 ovarian): > 100 µM | TGI (OVCAR-4 ovarian): > 100 µM | TGI (OVCAR-5 ovarian): > 100 µM | TGI (OVCAR-8 ovarian): > 100 µM | TGI (PC-3 prostate): > 100 µM | TGI (RPMI-8226 leukemia): > 100 µM | TGI (RXF 393 renal): > 100 µM | TGI (SF-268 CNS): > 100 µM | TGI (SF-295 CNS): > 100 µM | TGI (SF-539 CNS): > 100 µM | TGI (SK-MEL-2 melanoma): > 100 µM | TGI (SK-MEL-28 melanoma): > 100 µM | TGI (SK-MEL-5 melanoma): > 100 µM | TGI (SK-OV-3 ovarian): > 100 µM | TGI (SNB-19 CNS): > 100 µM | TGI (SNB-75 CNS): > 100 µM | TGI (SW-620 colon): > 100 µM | TGI (T-47D breast): > 100 µM | TGI (TK-10 renal): > 100 µM | TGI (U251 CNS): > 100 µM | TGI (UACC-257 melanoma): > 100 µM | TGI (UACC-62 melanoma): > 100 µM | TGI (UO-31 renal): > 100 µM
